d = 2'-deoxy (DNA); r = 2'-OH (RNA)
Experiments:
[1] = system: A2780CP20 ovarian cancer cell line; assay: MTS proliferation assay: cisplatin sensitivity after siRNA pretreatment; assay type: cell-based; conditions: for fold change in cisplatin sensitivity: A2780CP20 cells, compared to siNEG
Method: Cell culture and RNA interference. Ovarian cancer cell lines were routinely maintained in medium supplemented with 10% fetal bovine serum and 2 mM L-glutamine. SKOV3 and OVCAR3 cell lines were maintained in RPMI-1640 medium, OVCA420 and OVCA432 were maintained in 105/199 medium and OVCA420 and CAOV3 cells were maintained in DMEM medium. For 3-(4,5-dimethylthiazol-2-yl)-5-(3-carboxymethoxyphenyl)-2-(4-sulfophenyl)-2H-tetrazolium (MTS) assays, transfections mediated by cationic lipid were performed in 96-well plates. Cells were seeded on a complex of the appropriate siRNA (QIAGEN® Inc., Germantown, Md.) and Oligofectamine (Invitrogen, Carlsbad, Calif.) in unsupplemented growth medium. Final amounts in each well were 50 nM siRNA, 0.5 ul Oligofectamine, and 3000 cells in 100 μL medium. The siRNA target sequences of the synthetic siRNAs were designed against the reference RNA sequence.
MTS proliferation assay. Cell line sensitivity to chemotherapeutic reagents such as cisplatin or taxol was determined by measuring formazan production from MTS (PROMEGA®, Madison, Wis.), with drug concentrations tested in octuplicates in each experiment. For example, serial dilutions of cisplatin or taxol were made shortly before addition to cells. At 48 hours after transfection and seeding, cells were washed by aspiration of the supernatant, and 150 uL of drug-containing medium is added. Another 48 hours later, the drug solution was aspirated and 120 uL MTS-containing medium is added according to the manufacturer's protocol (PROMEGA® #G3580, Madison, Wis.). The plates were incubated at 37° C. and read at 490 nm after 3 hours. Using GraphPad PRISM® 4.02 (GraphPad Software Inc., San Diego, Calif.), the drug concentrations were log-transformed and nonlinear regression is performed on the A490 data using the sigmoidal dose response model with variable slope. Mean EC50 values, standard errors, and 95% confidence intervals were determined from the logistic fits.
(§1) As described above in Example 1, A2780CP20 ovarian cancer cell lines were transfected with siPOLH-2 or siPOLH-5, treated with cisplatin starting 48 hours later, and assayed with MTS 48 hours thereafter. Viable cell number data was acquired by reading the fluorescence emissions at 490 nm. Using GraphPad Prism 4.02, cisplatin drug concentrations were log-transformed and nonlinear regression performed on the A490 data using the sigmoidal dose response model with variable slope to generate the IC50 curves. IC50 values and 95% confidence intervals were determined from the logistic fits.
as §1, with “A2780CP20” for “As described above in Example 1, A2780CP20”, “siREV3L-1” for “siPOLH-2”, “siREV3L-2,” for “siPOLH-5,”, “thereafter (as described above, including Example 1).” for “thereafter.”, “fits. […] Further, a 2.1 fold change in cisplatin sensitivity was detected for siREV3L-1 pretreatment and a 2.9 fold change in such sensitivity for siREV3L-2 pretreatment.” for “fits.”
as §1, with “FIG. 5 illustrates the effect of pretreatment with RNAi against POLH and REV3L on cisplatin resistance.” for “As described above in Example 1,”, “cotransfected” for “transfected”, “siPOLH-5 and siREV3L-2,” for “siPOLH-2 or siPOLH-5,”

POLH = assay: Western blot analysis for POLH after POLH siRNA treatment; assay type: cell-based; conditions: lysates at 24, 48, 72 and 96 hours; 5 ul of 1 ug/ul POLH-siRNA
Method: Cell lysates were collected and examined by Western blot analysis for POLH. After treating cells with 5 ul of 1 ug/ul POLH-siRNA, lysates were collected at 24, 48, 72 and 96 hours and then analyzed for down-regulation of POLH.

| Substance | cell sensitivity to cisplatin when compared to cells treated with siNEG [1] | fold change in cisplatin sensitivity [1] [fold] | POLH expression (down-regulation of POLH) (POLH) |
| --- | --- | --- | --- |
| siPOLH-2: synthetic siRNA against POLH (exon 10), Qiagen cat #SI00089012, SEQ ID NO:8 sense and SEQ ID NO:9 antisense (sense CCAUUUAGGUGCUGAGUUATT; antisense UAACUCAGCACCUAAAUGGAG; sugars from the 5' end r19 d2, backbone not given here) | significantly increased | 1.6 | – |
| siPOLH-5: synthetic siRNA against POLH (exon 11), Qiagen cat #SI02663619, SEQ ID NO:11 sense and SEQ ID NO:12 antisense (sense GGUUGUGAGCAUUCGUGUATT; antisense UACACGAAUGCUCACAACCTG; sugars from the 5' end r19 d2, backbone not given here) | significantly increased | 1.9 | inhibit POLH RNA expression |
| siREV3L-1: synthetic siRNA against REV3L (exon 18), Qiagen cat #SI00045626, SEQ ID NO:2 sense and SEQ ID NO:3 antisense (sense GGAUGUAGUCAAACUGCAATT; antisense UUGCAGUUUGACUACAUCCAG; sugars from the 5' end r19 d2, backbone not given here) | significantly increased | 2.1 | – |
| siREV3L-2: synthetic siRNA against REV3L (exon 17), Qiagen cat #SI00045633, SEQ ID NO:5 sense and SEQ ID NO:6 antisense (sense CACUGGAAUUAAUGCACAATT; antisense UUGUGCAUUAAUUCCAGUGTG; sugars from the 5' end r19 d2, backbone not given here) | significantly increased | 2.9 | – |

From patent publication US20110178154A1, “GENE EXPRESSION PROFILE THAT PREDICTS OVARIAN CANCER SUBJECT RESPONSE TO CHEMOTHERAPY” (priority 2007, published 2011)
